Source: ChEMBL document CHEMBL4665646, “Mass Spectrometry-based Label-free Quantitative Proteomics To Study the Effect of 3PO Drug at Cellular Level” (2019)
Activity calls are given as the source filed them. The rule behind the calls is not given here.

Experiments:
EA.hy 926 [1] = experiment: Cytotoxicity against human EA.hy 926 cells assessed as inhibition of cell proliferation at 20 uM after 24 hrs by MTT assay; format: functional, cell-based
EA.hy 926 [2] = experiment: (§1) Antiinflammatory activity in TNFalpha-induced human EA.hy 926 cells assessed as decrease in ICMA-1 expression at 20 uM pretreated with compound for 1 hr followed by TNFalpha challenge and further incubated for 24 hrs by SYBR-green based qRT-PCR analysis; format: functional, cell-based; conditions: time 25.0 hrs
EA.hy 926 [3] = experiment: Antiinflammatory activity in TNFalpha-induced human EA.hy 926 cells assessed as decrease in IL1B expression at 20 uM pretreated with compound for 1 hr followed by TNFalpha challenge and further incubated for 24 hrs by SYBR-green based qRT-PCR analysis; format: functional, cell-based; conditions: time 25.0 hrs
EA.hy 926 [4] = experiment: Antiinflammatory activity in TNFalpha-induced human EA.hy 926 cells assessed as decrease in IL8 expression at 20 uM pretreated with compound for 1 hr followed by TNFalpha challenge and further incubated for 24 hrs by SYBR-green based qRT-PCR analysis; format: functional, cell-based; conditions: time 25.0 hrs
EA.hy 926 [5] = experiment: as §1, with “HLA-A” for “ICMA-1”, “expression by measuring log2 fold change” for “expression”, “analysis (reference value: 1.56)” for “analysis”; format: functional; conditions: time 25 hrs
EA.hy 926 [6] = experiment: as §1, with “SOD-2” for “ICMA-1”, “expression by measuring log2 fold change” for “expression”, “analysis (reference value: 2.69)” for “analysis”; format: functional; conditions: time 25 hrs
EA.hy 926 [7] = experiment: Antiinflammatory activity in TNFalpha-induced human EA.hy 926 cells assessed as decrease in ICAM-1 expression by measuring log2 fold change at 20 uM pretreated with compound for 1 hr followed by TNFalpha challenge and further incubated for 24 hrs by SYBR-green based qRT-PCR analysis; format: functional; conditions: time 25 hrs

O=C(/C=C/c1cccnc1)c1ccncc1
inhibition (EA.hy 926 [1]): Active
Activity (EA.hy 926 [2]): Active
Activity (EA.hy 926 [3]): Active
Activity (EA.hy 926 [4]): Active
log2FC (EA.hy 926 [5]): -0.75
log2FC (EA.hy 926 [6]): -0.53
log2FC (EA.hy 926 [7]): -0.47
